Test: molar heat capacity at constant pressure
Settings: 101.33 kPa, Small (less than 1 g) adiabatic calorimetry

O=P([O-])([O-])[O-].[Cs+].[Mg+2] [caesium-magnesium monophosphate]
molar heat capacity at constant pressure [J/K/mol]
Settings	Crystal 1	Crystal 2
7.22 K	–	0.956
7.3 K	–	0.981
7.96 K	–	1.22
8 K	–	1.24
8.7 K	–	1.59
9.4 K	–	1.98
10.09 K	–	2.4
10.42 K	–	2.67
11.01 K	–	3.12
11.69 K	–	3.64
12.4 K	–	4.2
13.07 K	–	4.7
13.9 K	–	5.392
14.63 K	–	6.03
15.35 K	–	6.706
16.06 K	–	7.41
16.84 K	–	8.22
17.45 K	–	8.872
18.81 K	–	10.39
19.49 K	–	11.15
20.16 K	–	11.94
21.16 K	–	13.14
22.91 K	–	15.3
25.31 K	–	18.18
27.75 K	–	20.87
30.21 K	–	23.48
32.69 K	–	25.92
35.16 K	–	28.27
37.64 K	–	30.51
40.12 K	–	32.64
42.6 K	–	34.69
45.08 K	–	36.64
47.57 K	–	38.55
52.52 K	–	41.99
54.99 K	–	43.63
57.47 K	–	45.23
59.95 K	–	46.77
61.64 K	–	47.78
63.99 K	–	49.13
67.48 K	–	51.06
71.15 K	–	53
74.82 K	–	54.85
78.48 K	–	56.63
82.15 K	–	58.35
82.7 K	–	58.61
85.82 K	–	60.04
85.9 K	–	60.06
88.99 K	–	61.45
89.49 K	–	61.67
91.95 K	–	62.76
94.91 K	–	64.05
97.87 K	–	65.34
100.82 K	–	66.59
103.77 K	–	67.82
106.72 K	–	69.04
109.68 K	–	70.27
112.63 K	–	71.51
115.8 K	–	72.79
118.91 K	–	74.06
121.88 K	–	75.27
124.84 K	–	76.48
127.8 K	–	77.7
130.76 K	–	78.9
133.72 K	–	80.09
136.69 K	–	81.3
139.65 K	–	82.5
142.62 K	–	83.64
145.59 K	–	84.81
148.56 K	–	85.97
151.53 K	–	87.14
154.5 K	–	88.22
157.6 K	–	89.38
160.43 K	–	90.46
163.6 K	–	91.63
166.37 K	–	92.62
169.34 K	–	93.7
172.31 K	–	94.79
175.74 K	–	96.03
178.73 K	–	97.11
182.05 K	–	98.28
185.19 K	–	99.36
188.17 K	–	100.4
191.4 K	–	101.5
194.3 K	–	102.6
197.16 K	–	103.5
199.5 K	–	104.3
200.16 K	–	104.6
202.4 K	–	105.3
202.86 K	–	105.5
205.51 K	–	106.3
205.98 K	–	106.6
208.48 K	–	107.5
208.94 K	–	107.8
211.44 K	–	108.6
211.9 K	–	108.9
214.13 K	–	109.6
214.59 K	–	109.9
217.18 K	–	110.9
217.64 K	–	111.2
220.64 K	–	112.7
221.1 K	–	113
223.65 K	–	114.4
224.11 K	–	114.9
226.53 K	–	116.3
226.99 K	–	116.9
232.4 K	–	122.6
232.75 K	–	123.1
235.69 K	133.5	129.2
235.7 K	129.1	–
237.89 K	126.1	–
238.55 K	124.9	–
240.77 K	121.7	–
241.43 K	120.9	–
243.77 K	118.8	–
244.43 K	118.3	–
246.72 K	116.9	–
247.38 K	116.7	–
249.24 K	115.8	–
249.9 K	115.7	–
250 K	112.2	–
252.35 K	115.1	–
253.01 K	114.9	–
255.27 K	114.7	–
255.8 K	114.7	–
257.91 K	114.8	–
258.57 K	114.8	–
260 K	114.2	–
260.67 K	115	–
261.33 K	115.1	–
263.41 K	115.3	–
264.07 K	115.4	–
266.23 K	115.7	–
266.89 K	115.8	–
268.97 K	116.1	–
269.63 K	116.2	–
270 K	116.3	–
271.52 K	116.5	–
272.18 K	116.7	–
274.19 K	117.1	–
274.85 K	117.2	–
276.83 K	117.7	–
277.49 K	117.8	–
280 K	118.3	–
280.12 K	118.3	–
282.5 K	118.8	–
285.44 K	119.4	–
287.8 K	119.8	–
289.7 K	120.3	–
290 K	120.3	–

— the NIST ThermoML archive (doi:10.1016/j.jct.2007.11.001)
